Source: ChEMBL document CHEMBL3217636, “Design, synthesis and biological evaluation of novel benzothiazole and triazole analogs as falcipain inhibitors” (Medchemcomm, 2011)
Activity calls are given as the source filed them. No cut-off for these calls is given here.

Experiments:
[1] = Inhibition of Plasmodium falciparum recombinant falcipain 2
Plasmodium falciparum [2] = assay: Antimalarial activity against Plasmodium falciparum W2; format: functional, organism-based
Cathepsin K = biological target: T1, Cathepsin K (Homo sapiens, UniProt P43235); assay: Inhibition of human cathepsin K
T1 sequence (P43235 whole entry): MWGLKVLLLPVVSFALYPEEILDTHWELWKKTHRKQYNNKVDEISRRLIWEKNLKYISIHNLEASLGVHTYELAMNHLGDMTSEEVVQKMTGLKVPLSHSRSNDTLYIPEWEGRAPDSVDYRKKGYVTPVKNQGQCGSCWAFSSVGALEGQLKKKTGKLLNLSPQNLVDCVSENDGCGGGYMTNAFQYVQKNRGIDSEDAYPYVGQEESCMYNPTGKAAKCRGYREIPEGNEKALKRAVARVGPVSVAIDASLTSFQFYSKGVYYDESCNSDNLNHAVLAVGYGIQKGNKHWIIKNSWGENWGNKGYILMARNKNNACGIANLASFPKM

Procathepsin L = Procathepsin L (Homo sapiens, UniProt P07711); assay: Inhibition of human cathepsin L1
Cathepsin B = Cathepsin B (Homo sapiens, UniProt P07858); assay: Inhibition of human cathepsin B
[3] = Inhibition of Plasmodium falciparum recombinant falcipain 3
Plasmodium falciparum [4] = assay: Antimalarial activity against Plasmodium falciparum W2 at 10 uM; format: functional, organism-based

Procathepsin L, sequence (P07711 whole entry): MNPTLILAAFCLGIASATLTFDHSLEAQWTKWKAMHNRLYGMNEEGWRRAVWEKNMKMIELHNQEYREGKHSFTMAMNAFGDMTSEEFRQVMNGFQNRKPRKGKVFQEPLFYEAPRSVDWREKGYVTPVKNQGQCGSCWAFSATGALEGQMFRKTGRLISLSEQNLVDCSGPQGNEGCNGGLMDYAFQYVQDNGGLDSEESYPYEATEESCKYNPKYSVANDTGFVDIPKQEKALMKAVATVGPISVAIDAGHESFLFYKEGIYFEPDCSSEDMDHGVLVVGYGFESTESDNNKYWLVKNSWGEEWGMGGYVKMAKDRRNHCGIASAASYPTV

IC50 [1] [µM] | Structure (SMILES) | other results
> 50 | Cc1cc(NC(=O)Cn2cc(COc3ccccc3)nn2)no1 | –
> 50 | Cc1ccc(NC(=O)CSc2nc3ccc(NC(=O)[C@H](N)c4ccccc4)cc3s2)cc1 | –
> 50 | Cc1cc(NC(=O)Cn2cc(-c3cccc4ccccc34)nn2)no1 | –
> 50 | Cc1cccc(-c2cn(CC(=O)Nc3cc(C)on3)nn2)c1 | –
38.4 | COc1ccc2cc(-c3cn(CC(=O)Nc4cc(C)on4)nn3)ccc2c1 | –
> 50 | CCOC(=O)CSc1nc2ccc(NS(=O)(=O)c3ccccc3[N+](=O)[O-])cc2s1 | –
> 50 | CCOC(=O)CSc1nc2ccc(NS(=O)(=O)c3ccc(F)cc3)cc2s1 | –
35.7 | O=C(CSc1nc2ccc(NS(=O)(=O)c3ccc(OC(F)(F)F)cc3)cc2s1)c1ccccc1 | –
> 50 | Cc1cc(NC(=O)Cn2cc(-c3cccc(O)c3)nn2)no1 | –
> 50 | O=C(CSc1nc2ccc(NS(=O)(=O)c3ccc(OC(F)(F)F)cc3)cc2s1)c1ccc2ccccc2c1 | –
31.3 | CCOC(=O)CSc1nc2ccc(NS(=O)(=O)c3ccc4ccncc4c3)cc2s1 | –
2.2 | Cc1cc(NC(=O)Cn2nnc(-c3ccc(NC(=O)c4ccc(F)cc4)cc3)n2)no1 | IC50 (Plasmodium falciparum [2]): > 10 µM; IC50 (Cathepsin K): 3.83 µM; IC50 (Procathepsin L): 24.4 µM; IC50 (Cathepsin B): 37.1 µM; IC50 [3]: 4.95 µM
24.3 | Cc1ccc(NC(=O)CSc2nc3ccc(NS(=O)(=O)CC(F)(F)F)cc3s2)cc1 | –
> 50 | CCOC(=O)CSc1nc2ccc(N)cc2s1 | –
11.1 | O=C(CSc1nc2ccc(NS(=O)(=O)c3ccccc3[N+](=O)[O-])cc2s1)c1ccccc1 | –
> 50 | Cc1cc(NC(=O)Cn2cc(-c3ccccc3)nn2)no1 | –
> 50 | Cc1cc(NC(=O)Cn2cc(-c3ccc(F)cc3)nn2)no1 | –
– | C[C@@H]1CC[C@H]2[C@@H](C)C(=O)O[C@@H]3O[C@@]4(C)CC[C@@H]1[C@]32OO4 [ARTEMISININ] | IC50 (Plasmodium falciparum [2]): 0.012 µM
16.5 | Cc1ccc(NC(=O)CSc2nc3ccc(NS(=O)(=O)c4ccc(F)cc4)cc3s2)cc1 | –
13.9 | CC(=O)Nc1ccc2nc(SCC(=O)Nc3ccc(C)cc3)sc2c1 | –

IC50 [1] [µM] | Structure (SMILES) | other results
43.2 | O=C(CSc1nc2ccc(NS(=O)(=O)c3ccc(F)cc3)cc2s1)c1ccc2ccccc2c1 | –
19.9 | Cc1cc(NC(=O)Cn2cc(-c3ccc(Oc4ccccc4)cc3)nn2)no1 | IC50 [3]: 39.7 µM
12.8 | N[C@@H](C(=O)Nc1ccc2nc(SCC(=O)c3ccc4ccccc4c3)sc2c1)c1ccccc1 | IC50 (Cathepsin K): 5.62 µM; IC50 (Procathepsin L): 4.39 µM; Activity (Plasmodium falciparum [4]): inactive; IC50 (Cathepsin B): > 50 µM; IC50 [3]: 14.9 µM
> 50 | Cc1cc(NC(=O)Cn2cc(-c3ccc(C=O)cc3)nn2)no1 | –
> 50 | CCOC(=O)CSc1nc2ccc(NS(=O)(=O)CC(F)(F)F)cc2s1 | –
39 | CCCCCc1ccc(-c2cn(CC(=O)Nc3cc(C)on3)nn2)cc1 | –
12.2 | CC(C)[C@@H](N)C(=O)Nc1ccc2nc(SCC(=O)c3ccc4ccccc4c3)sc2c1 | IC50 (Plasmodium falciparum [2]): 4.65 µM; IC50 (Cathepsin K): 14.5 µM; IC50 (Procathepsin L): 5.87 µM; IC50 (Cathepsin B): > 50 µM; IC50 [3]: 13.8 µM
> 50 | Cc1ccc(NC(=O)CSc2nc3ccc(N)cc3s2)cc1 | –
0.03 | CC(C)C[C@H](NC(=O)[C@H]1O[C@@H]1C(=O)O)C(=O)NCCCCN=C(N)N [E-64] | IC50 (Cathepsin K): 0.004 µM; IC50 (Procathepsin L): 0.016 µM; IC50 (Cathepsin B): 0.005 µM
16.9 | Cc1ccc(NC(=O)CSc2nc3ccc(NS(=O)(=O)c4ccc(OC(F)(F)F)cc4)cc3s2)cc1 | –
> 50 | Nc1ccc2nc(SCC(=O)c3ccc4ccccc4c3)sc2c1 | –
> 50 | Cc1cc(NC(=O)Cn2cc(CCCCl)nn2)no1 | –
> 50 | O=C(CSc1nc2ccc(NS(=O)(=O)c3ccc4ccncc4c3)cc2s1)c1ccc2ccccc2c1 | IC50 (Plasmodium falciparum [2]): 2.08 µM
> 50 | Cc1ccc(NC(=O)CSc2nc3ccc(NC(=O)[C@H](N)C(C)C)cc3s2)cc1 | –
14 | Cc1ccc(NC(=O)CSc2nc3ccc(NS(=O)(=O)c4ccc5ccncc5c4)cc3s2)cc1 | –
> 50 | Nc1ccc2nc(SCC(=O)c3ccccc3)sc2c1 | –
13.2 | CC(=O)Nc1ccc2nc(SCC(=O)c3ccc4ccccc4c3)sc2c1 | –
> 50 | Cc1cc(NC(=O)Cn2cc(-c3cccnc3)nn2)no1 | –
10.3 | COc1ccc(C(=O)Nc2ccc3nc(SCC(=O)c4ccccc4)sc3c2)cc1 | IC50 (Plasmodium falciparum [2]): > 10 µM; IC50 (Cathepsin K): 6.12 µM; IC50 (Procathepsin L): 31.6 µM; IC50 (Cathepsin B): 17.7 µM; IC50 [3]: > 50 µM
